The values below come from patent US20240025906A1 (NEURON23, INC., priority 2022, published 2024).

Assay [1] deals with JAK1/TYK2 pSTAT5 (Tyr694/699) in THP-1 cell line. In words: IFNa-stimulated JAK1/TYK2 pSTAT5 (Tyr694/699) inhibition cellular assay, AlphaLISA. The class given is cell-based. The note with it: Homo sapiens; THP-1 cells, IFNa-stimulated, AlphaLISA (Assay B); read-out: Cellular_THP1_IFNa-pSTATS_TYK2. The procedure, abridged:
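The readout is AlphaLISA signal at 615 nm for phospho-STAT5 in THP-1 lysates after IFNa stimulation (added at 100 ng/mL, 30 min, 37 °C). Cells had compound for 1 h beforehand across eight 6-fold concentrations up to 10000 nM final. IC50s are 4PL fits with bottom and Hill slope constrained.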
In general terms: Alpha assays give light when donor and acceptor beads are brought close together.

For the next assay, the target named is T1, TYK2 JH2 (Homo sapiens, UniProt P29597).
T1 construct: purchased DiscoverX (KINOMEscan KdELECT service); host or cells: E. coli BL21-derived (T7 phage display) or HEK-293
Kind of assay: TYK2 JH2 binding assay (KINOMEscan KdELECT competitive binding). The following applies: TYK2 JH2 domain, DiscoverX KINOMEscan KdELECT (Assay A); read-out: Biochemical TYK2_DiscoverX_JH2_BND_Kd. In outline: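 Competition binding, KdELECT format. Kinase (phage-tagged, E. coli BL21-derived host; or HEK-293, DNA-tagged) + ligand-coated streptavidin beads + cpd, 1 h RT, final DMSO 0.9%. Wash, elute 30 min with 0.5 μM non-biotinylated ligand; qPCR readout. Kd: 11-pt, 3-fold series.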

SMILES strings stand for the structures. Where only a bound is given, the exact number is not on record here.

T1 sequence (P29597 589-875 limits assumed): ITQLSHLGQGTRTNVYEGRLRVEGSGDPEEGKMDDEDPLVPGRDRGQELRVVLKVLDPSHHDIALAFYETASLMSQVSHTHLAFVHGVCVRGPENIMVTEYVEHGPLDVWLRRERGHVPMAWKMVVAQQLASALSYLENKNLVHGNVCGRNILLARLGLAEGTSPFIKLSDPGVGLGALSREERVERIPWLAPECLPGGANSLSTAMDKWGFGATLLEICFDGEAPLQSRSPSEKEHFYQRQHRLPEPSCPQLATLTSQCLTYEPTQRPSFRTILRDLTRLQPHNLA

For `CNc1ncc(-c2nc3cc(N4CCS(=O)(=O)CC4)ccc3o2)c2cc(NC(=O)C3CC3)ncc12` [Example 303, N-(5-(5-(1,1-dioxidothiomorpholino)benzo[d]oxazol-2-yl)-8-(methylamino)-2,7-naphthyridin-3-yl)cyclopropanecarboxamide], the IC50 in assay [1] is at most 500 nM. Besides, the Kd on TYK2 JH2 is at most 100 nM.
Consider `CNc1ncc(-c2nc3cc(N4CCN(C)CC4)ccc3o2)c2cc(NC(=O)C3CC3)ncc12` [Example 304, N-(8-(methylamino)-5-(5-(4-methylpiperazin-1-yI)benzo[d]oxazol-2-y1)-2,7-naphthyridin-3-yl)cyclopropanecarboxamide], for which the IC50 in assay [1] was at most 500 nM. Further, the Kd on TYK2 JH2 is at most 100 nM.
Consider `CNc1ncc(-c2nc3cc(N4CC5CCC(C4)O5)ccc3o2)c2cc(NC(=O)C3CC3)ncc12` [Example 305], for which the IC50 in assay [1] was at most 500 nM. Besides, the Kd at TYK2 JH2 is at most 100 nM.
As for `CNc1ncc(-c2nc3cc(N4C[C@H]5COC[C@H]5C4)ccc3o2)c2cc(NC(=O)C3CC3)ncc12` [Example 306, N-(8-(methylamino)-5-(5-((3aR,6a.S)-tetrahydro-1H-furo[3,4-c]pyrrol-5(3H)-yl)benzo[d]oxazol-2-y1)-2,7-naphthyridin-3-yl)cyclopropanecarboxamide], the IC50 in assay [1] was at most 500 nM. On TYK2 JH2, the Kd was at most 100 nM.
The corresponding values for `CNc1ncc(-c2nc3cc(N4CCN(c5ccncc5)CC4)ccc3o2)c2cc(NC(=O)C3CC3)ncc12` [Example 307, N-(8-(methylamino)-5-(5-(4-(pyridin-4-yl)piperazin-1-yl)benzo[d]oxazol-2-yl)-2,7-naphthyridin-3-yl)cyclopropanecarboxamide] are at most 500 nM and at most 100 nM.
The corresponding values for `CNc1ncc(-c2nc3cc(N4CCOC[C@@H]4C)ccc3o2)c2cc(NC(=O)C3CC3)ncc12` [Example 308, (S)-N-(8-(methylamino)-5-(5-(3-methylmorpholino)benzo[d]oxazol-2-yl)-2,7-naphthyridin-3-yl)cyclopropanecarboxamide] are at most 500 nM and at most 100 nM.
Consider `CNc1ncc(-c2nc3cc(N4CCOC[C@H]4C)ccc3o2)c2cc(NC(=O)C3CC3)ncc12` [Example 309, (R)-N-(8-(methylamino)-5-(5-(3-methylmorpholino)benzo[d]oxazol-2-yl)-2,7-naphthyridin-3-yl)cyclopropanecarboxamide], for which the IC50 in assay [1] is at most 500 nM. In addition, the Kd on TYK2 JH2 is at most 100 nM.
The like results for `CNc1ncc(-c2nc3cc(N4CCC5(CC4)COC5)ccc3o2)c2cc(NC(=O)C3CC3)ncc12` [Example 310, N-(5-(5-(2-oxa-7-azaspiro[3.5]nonan-7-yl)benzo[d]oxazol-2-y1)~8-(methylamino)-2,7-naphthyridin-3-yl)cyclopropanecarboxamide] were, in that order, at most 500 nM and at most 100 nM.
The like results for `CNc1ncc(-c2nc3cc(N4C5CCC4COC5)ccc3o2)c2cc(NC(=O)C3CC3)ncc12` [Example 311, N-(5-(5-(3-oxa-8-azabicyclo[3.2.1]octan-8-yl)benzo[d]oxazol-2-y1)-8-(methylamino)-2,7-naphthyridin-3-yl)cyclopropanecarboxamide] were, in that order, at most 500 nM and at most 100 nM.
`CNc1ncc(-c2nc3cc(OC4(C)COC4)ccc3o2)c2cc(NC(=O)C3CC3)ncc12` [Example 312, N-(8-(methylamino)-5-(5-((3-methyloxetan-3-yl)oxy)benzo[d]oxazol-2-yl)-2,7-naphthyridin-3-yl)cyclopropanecarboxamide]: the IC50 in assay [1] was at most 500 nM. The Kd at TYK2 JH2 was at most 100 nM.
Turning to `CNc1ncc(-c2nc3cc(N4CCCC5(CCO5)C4)ccc3o2)c2cc(NC(=O)C3CC3)ncc12` (centres unmarked) [Example 313, N-(5-(5-(1-oxa-6-azaspiro[3.5]nonan-6-yl)benzo[d]oxazol-2-yl)-8-(methylamino)-2,7-naphthyridin-3-yl)cyclopropanecarboxamide], the IC50 in assay [1] was at most 500 nM. In addition, the Kd at TYK2 JH2 was at most 100 nM.
Consider `CNc1ncc(-c2nc3cc(N4CCN(C5COC5)CC4)ccc3o2)c2cc(NC(=O)C3CC3)ncc12` [Example 314, N-(8-(methylamino)-5-(5-(4-(oxetan-3-yl)piperazin-1-yl)benzo[d]oxazol-2-yl)-2,7-naphthyridin-3-yl)cyclopropanecarboxamide], for which the IC50 in assay [1] is at most 500 nM. Also, at TYK2 JH2, the Kd was at most 100 nM.
`CNc1ncc(-c2nc3cc(N4C[C@@H](C)O[C@@H](C)C4)ccc3o2)c2cc(NC(=O)C3CC3)ncc12` [Example 315, N-(5-(5-((2R,6S)~2,6-dimethylmorpholino)benzo[d]oxazol-2-yl)-8-(methylamino)-2,7-naphthyridin-3-yl)cyclopropanecarboxamide]: the IC50 in assay [1] was at most 500 nM. The Kd on TYK2 JH2 is at most 100 nM.
Turning to `CNc1ncc(-c2nc3cc(N4CCOC(C)(C)C4)ccc3o2)c2cc(NC(=O)C3CC3)ncc12` [Example 317, N-(5-(5-(2,2-dimethylmorpholino)benzo[d]oxazol-2-yl)-8-(methylamino)-2,7-naphthyridin-3-yl)cyclopropanecarboxamide], in assay [1], the IC50 was at most 500 nM. Besides, the Kd on TYK2 JH2 was at most 100 nM.
Regarding `CNc1ncc(-c2nc3cc(N4CCCOCC4)ccc3o2)c2cc(NC(=O)C3CC3)ncc12` [Example 318, N-(5-(5-(1,4-oxazepan-4-yl)benzo[d]oxazol-2-yl)-8-(methylamino)-2,7-naphthyridin-3-yl)cyclopropanecarboxamide], the IC50 in assay [1] was at most 500 nM. Also, on TYK2 JH2, the Kd was at most 100 nM.
The corresponding values for `CNc1ncc(-c2nc3cc(N4CC(CC(F)F)C4)ccc3o2)c2cc(NC(=O)C3CC3)ncc12` [Example 319, N-(5-(5-(3-(2,2-difluoroethyl)azetidin-1-yl)benzo[d]oxazol-2-yl)-8-(methylamino)-2,7-naphthyridin-3-yl)cyclopropanecarboxamide] are at most 500 nM and at most 100 nM.
For the molecule `CNc1ncc(-c2nc3cc(N4CC[C@H]4C#N)ccc3o2)c2cc(NC(=O)C3CC3)ncc12` [Example 320, (S)—N-(5-(5-(2-cyanoazetidin-1-yl)benzo[d]oxazol-2-yl)-8-(methylamino)-2,7-naphthyridin-3-yl)cyclopropanecarboxamide], the IC50 in assay [1] is at most 500 nM. For the same molecule, the Kd on TYK2 JH2 was at most 100 nM.
The like results for `CNc1ncc(-c2nc3cc(N4CC[C@H]4C(N)=O)ccc3o2)c2cc(NC(=O)C3CC3)ncc12` [Example 321, (S)-1-(2-(6-(cyclopropanecarboxamido)-1-(methylamino)-2,7-naphthyridin-4-yl)benzo[d]oxazol-5-yl)azetidine-2-carboxamide] were, in that order, at most 500 nM and at most 100 nM.
Consider `CNc1ncc(-c2nc3cc(N4CC5(CN(C(C)=O)C5)C4)ccc3o2)c2cc(NC(=O)C3CC3)ncc12` [Example 322, N-(5-(5-(6-acetyl-2,6-diazaspiro[3.3]heptan-2-yl)benzo[d]oxazol-2-yl)-8-(methylamino)-2,7-naphthyridin-3-yl)cyclopropanecarboxamide], for which, in assay [1], the IC50 was at most 500 nM. Besides, the Kd on TYK2 JH2 was at most 100 nM.
On to `CNc1ncc(-c2nc3cc(N4CC(OCCC#N)C4)ccc3o2)c2cc(NC(=O)C3CC3)ncc12` [Example 323, N-(5-(5-(3-(2-cyanoethoxy)azetidin-1-yl)benzo[d]oxazol-2-yl)-8-(methylamino)-2,7-naphthyridin-3-yl)cyclopropanecarboxamide], for which, in assay [1], the IC50 is at most 500 nM. The Kd on TYK2 JH2 is at most 100 nM.
For the molecule `CNc1ncc(-c2nc3cc(N4CC(OCCOC)C4)ccc3o2)c2cc(NC(=O)C3CC3)ncc12` [Example 324, N-(5-(5-(3-(2-methoxyethoxy)azetidin-1-yl)benzo[d]oxazol-2-yl)-8-(methylamino)-2,7-naphthyridin-3-yl)cyclopropanecarboxamide], the IC50 in assay [1] was at most 500 nM. The Kd on TYK2 JH2 is at most 100 nM.
For `CNc1ncc(-c2nc3cc(N4CC5CC(CN(C)C5)C4)ccc3o2)c2cc(NC(=O)C3CC3)ncc12` [Example 325, N-(5-(5-(7-methyl-3,7-diazabicyclo[3.3.1]nonan-3-yl)benzo[d]oxazol-2-yl)-8-(methylamino)-2,7-naphthyridin-3-yl)cyclopropanecarboxamide], in assay [1], the IC50 is at most 500 nM. For the same molecule, at TYK2 JH2, the Kd is at most 100 nM.
Consider `CNc1ncc(-c2nc3cc(N4CC5CC(CN(C(C)=O)C5)C4)ccc3o2)c2cc(NC(=O)C3CC3)ncc12` [Example 326, N-(5-(5-(7-acetyl-3,7-diazabicyclo[3.3.1]nonan-3-yl)benzo[d]oxazol-2-yl)-8-(methylamino)-2,7-naphthyridin-3-yl)cyclopropanecarboxamide], for which, in assay [1], the IC50 is at most 500 nM. Further, the Kd at TYK2 JH2 is at most 100 nM.
In the case of `CNc1ncc(-c2nc3cc(N4CC5CN(C)CC(C4)O5)ccc3o2)c2cc(NC(=O)C3CC3)ncc12` [Example 327, N-(5-(5-(7-methyl-9-oxa-3,7-diazabicyclo[3.3.1]nonan-3-yl)benzo[d]oxazol-2-yl)-8-(methylamino)-2,7-naphthyridin-3-yl)cyclopropanecarboxamide], the IC50 in assay [1] is at most 500 nM. Besides, the Kd at TYK2 JH2 was at most 100 nM.
The like results for `CNc1ncc(-c2nc3cc(N4CCCS4(=O)=O)ccc3o2)c2cc(NC(=O)C3CC3)ncc12` [Example 328, N-(5-(5-(1,1-dioxidoisothiazolidin-2-yl)benzo[d]oxazol-2-yl)-8-(methylamino)-2,7-naphthyridin-3-yl)cyclopropanecarboxamide] were, in that order, at most 500 nM and at most 100 nM.
